Patent publication US20230139171A1 (SITA Information Networking Computing UK Limited, priority 2019, published 2023)

How the values were obtained:
Type in all cases: cell-based
[1] = molecular target: T1, human TLR9 (Homo sapiens, UniProt Q9NR96); test: TLR9 inhibition reporter assay (HEK-Blue cells, SEAP reporter, ODN2006 stimulation); conditions: HEK-Blue cells overexpressing human TLR9, SEAP reporter, ODN2006 5 nM
T1 construct: host or cells: HEK-Blue cells
T1 sequence (Q9NR96 26-1032): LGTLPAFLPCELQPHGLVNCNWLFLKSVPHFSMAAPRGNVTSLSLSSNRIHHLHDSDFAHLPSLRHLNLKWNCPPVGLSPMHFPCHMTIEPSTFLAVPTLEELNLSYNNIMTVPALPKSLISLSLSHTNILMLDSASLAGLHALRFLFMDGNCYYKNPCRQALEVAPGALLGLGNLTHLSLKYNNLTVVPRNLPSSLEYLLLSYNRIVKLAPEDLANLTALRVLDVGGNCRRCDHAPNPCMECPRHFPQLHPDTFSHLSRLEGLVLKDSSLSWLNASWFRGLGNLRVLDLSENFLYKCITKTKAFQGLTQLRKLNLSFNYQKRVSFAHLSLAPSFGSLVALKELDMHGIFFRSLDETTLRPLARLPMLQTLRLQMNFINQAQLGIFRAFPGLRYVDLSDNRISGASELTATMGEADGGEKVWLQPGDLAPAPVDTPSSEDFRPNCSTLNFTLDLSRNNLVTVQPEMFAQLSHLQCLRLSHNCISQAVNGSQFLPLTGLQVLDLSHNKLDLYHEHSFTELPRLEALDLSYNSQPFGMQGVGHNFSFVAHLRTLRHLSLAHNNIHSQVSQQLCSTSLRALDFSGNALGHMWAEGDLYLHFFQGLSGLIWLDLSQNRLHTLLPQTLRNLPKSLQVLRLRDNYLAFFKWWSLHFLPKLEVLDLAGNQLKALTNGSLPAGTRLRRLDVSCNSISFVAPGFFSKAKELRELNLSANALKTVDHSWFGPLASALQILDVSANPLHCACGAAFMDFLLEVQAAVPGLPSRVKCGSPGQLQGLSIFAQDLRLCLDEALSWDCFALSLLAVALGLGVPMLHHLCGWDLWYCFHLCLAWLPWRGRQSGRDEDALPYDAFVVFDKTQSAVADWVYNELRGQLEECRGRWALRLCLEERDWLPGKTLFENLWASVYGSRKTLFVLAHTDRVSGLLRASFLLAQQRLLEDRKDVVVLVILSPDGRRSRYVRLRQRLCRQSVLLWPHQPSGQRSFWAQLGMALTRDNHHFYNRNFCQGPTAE
How it was run: (§1)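 Human TLR7/8/9 HEK-Blue reporter lines; dose range 0.05 nM–50 μM; 30 min RT preincubation; stimulus gardiquimod 7.5 μM / R848 15.9 μM / ODN2006 5 nM respectively; 22 h, 37 °C; SEAP detected colorimetrically.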

[2] = molecular target: T2, human TLR8 (Homo sapiens, UniProt Q9NR97); test: TLR8 inhibition reporter assay (HEK-Blue cells, SEAP reporter, R848 stimulation); conditions: HEK-Blue cells overexpressing human TLR8, SEAP reporter, R848 15.9 μM; read-out: TLR8 IC50
T2 construct: host or cells: HEK-Blue cells
T2 sequence (Q9NR97 27-1041): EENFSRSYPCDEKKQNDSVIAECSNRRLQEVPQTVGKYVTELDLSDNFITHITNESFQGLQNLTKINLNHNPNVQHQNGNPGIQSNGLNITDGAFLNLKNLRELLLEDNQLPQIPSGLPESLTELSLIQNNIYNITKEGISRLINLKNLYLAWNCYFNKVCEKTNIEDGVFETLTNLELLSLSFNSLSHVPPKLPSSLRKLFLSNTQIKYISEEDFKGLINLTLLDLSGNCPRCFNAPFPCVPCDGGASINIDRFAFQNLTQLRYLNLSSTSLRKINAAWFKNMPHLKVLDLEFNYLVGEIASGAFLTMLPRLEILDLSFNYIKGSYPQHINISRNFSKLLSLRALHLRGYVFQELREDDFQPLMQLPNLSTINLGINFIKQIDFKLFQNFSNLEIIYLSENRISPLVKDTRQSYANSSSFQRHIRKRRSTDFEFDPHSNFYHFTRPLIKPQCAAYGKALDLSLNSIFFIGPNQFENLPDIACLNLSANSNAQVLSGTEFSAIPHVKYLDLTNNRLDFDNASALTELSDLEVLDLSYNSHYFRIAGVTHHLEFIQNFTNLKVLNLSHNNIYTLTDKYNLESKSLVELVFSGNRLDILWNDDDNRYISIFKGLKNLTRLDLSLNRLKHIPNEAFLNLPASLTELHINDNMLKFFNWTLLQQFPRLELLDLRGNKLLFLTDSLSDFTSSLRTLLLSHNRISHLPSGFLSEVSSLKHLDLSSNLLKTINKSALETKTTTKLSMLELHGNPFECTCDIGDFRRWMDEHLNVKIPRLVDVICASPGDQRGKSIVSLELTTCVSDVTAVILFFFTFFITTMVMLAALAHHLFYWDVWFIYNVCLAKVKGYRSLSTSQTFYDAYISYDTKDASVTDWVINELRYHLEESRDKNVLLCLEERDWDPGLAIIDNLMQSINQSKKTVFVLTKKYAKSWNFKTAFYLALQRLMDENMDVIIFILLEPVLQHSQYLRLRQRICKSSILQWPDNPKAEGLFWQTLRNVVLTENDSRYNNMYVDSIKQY
How it was run: as §1

[3] = molecular target: T3, human TLR7 (Homo sapiens, UniProt Q9NYK1); test: TLR7 inhibition reporter assay (HEK-Blue cells, SEAP reporter, gardiquimod stimulation); conditions: HEK-Blue cells overexpressing human TLR7, SEAP reporter, gardiquimod 7.5 μM; read-out: TLR7 IC50
T3 construct: host or cells: HEK-Blue cells
T3 sequence (Q9NYK1 27-1049): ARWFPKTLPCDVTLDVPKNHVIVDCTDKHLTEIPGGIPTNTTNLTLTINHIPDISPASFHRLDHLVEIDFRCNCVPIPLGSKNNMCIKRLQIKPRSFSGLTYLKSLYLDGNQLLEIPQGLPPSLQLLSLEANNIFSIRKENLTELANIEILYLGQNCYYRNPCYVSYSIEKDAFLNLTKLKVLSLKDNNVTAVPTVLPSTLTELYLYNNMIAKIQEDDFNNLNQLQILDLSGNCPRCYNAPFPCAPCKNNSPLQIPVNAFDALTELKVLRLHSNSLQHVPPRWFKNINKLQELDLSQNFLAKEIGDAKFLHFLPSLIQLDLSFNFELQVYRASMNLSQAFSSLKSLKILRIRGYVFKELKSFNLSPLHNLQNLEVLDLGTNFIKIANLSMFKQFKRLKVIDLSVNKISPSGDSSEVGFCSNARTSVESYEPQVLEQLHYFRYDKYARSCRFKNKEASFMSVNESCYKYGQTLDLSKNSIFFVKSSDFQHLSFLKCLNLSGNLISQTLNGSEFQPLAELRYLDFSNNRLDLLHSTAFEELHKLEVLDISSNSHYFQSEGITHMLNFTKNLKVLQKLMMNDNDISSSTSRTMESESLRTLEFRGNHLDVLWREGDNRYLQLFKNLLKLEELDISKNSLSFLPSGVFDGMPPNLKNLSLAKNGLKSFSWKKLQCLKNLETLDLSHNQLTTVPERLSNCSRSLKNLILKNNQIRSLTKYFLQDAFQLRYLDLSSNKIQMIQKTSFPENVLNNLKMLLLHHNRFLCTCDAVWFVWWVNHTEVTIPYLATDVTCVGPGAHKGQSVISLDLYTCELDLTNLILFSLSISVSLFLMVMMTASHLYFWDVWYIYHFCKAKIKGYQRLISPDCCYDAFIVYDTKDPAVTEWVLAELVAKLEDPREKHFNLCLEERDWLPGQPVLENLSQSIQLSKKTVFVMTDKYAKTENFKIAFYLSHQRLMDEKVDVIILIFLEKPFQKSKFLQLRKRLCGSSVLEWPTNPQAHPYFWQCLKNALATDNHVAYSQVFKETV
How it was run: as §1

Structure (SMILES)	IC50 [1] [nM]	IC50 [2] [nM]	IC50 [3] [nM]
Cc1c(-c2[nH]c3sc(C4CCC(N5CC(O)C5)CC4)nc3c2C(C)C)cn(C)c(=O)c1C (single isomer, unassigned) [Example 263, 5-(2-(4-(3-hydroxyazetidin-1-yl)cyclohexyl)-6-isopropyl-4H-pyrrolo[3,2-d]thiazol-5-yl)-1,3,4-trimethylpyridin-2(1H)-one]	18100	4.48	4.74
Cc1c(-c2[nH]c3sc(C4CCC(N5CCNC(=O)C5)CC4)nc3c2C(C)C)cn(C)c(=O)c1C (single isomer, unassigned) [Example 260, 4-(4-(6-isopropyl-5-(1,4,5-trimethyl-6-oxo-1,6-dihydropyridin-3-yl)-4H-pyrrolo[3,2-d]thiazol-2-yl)cyclohexyl)piperazin-2-one]	> 50000	138	170
COc1cc(-c2[nH]c3sc(C4CCC(N5CC(O)(C(F)(F)F)C5)CC4)nc3c2C(C)C)cn2ncnc12 (single isomer, unassigned) [Example 119, 1-(4-(6-isopropyl-5-(8-methoxy-[1,2,4]triazolo[1,5-a]pyridin-6-yl)-4H-pyrrolo[3,2-d]thiazol-2-yl)cyclohexyl)-3-(trifluoromethyl)azetidin-3-ol]	> 50000	54.2	3.33
Cc1c(-c2[nH]c3sc(C4CCC(N(C)C(C)C)CC4)nc3c2C(C)C)cn(C)c(=O)c1C (single isomer, unassigned) [Example 262, 5-(6-isopropyl-2-(4-(isopropyl(methyl)amino)cyclohexyl)-4H-pyrrolo[3,2-d]thiazol-5-yl)-1,3,4-trimethylpyridin-2(1H)-one]	18300	17.5	23.8
Cc1c(-c2[nH]c3sc(N4C[C@@H](C)NC[C@@H]4C)nc3c2C(C)C)cn2ncnc2c1C [Example 309, 5-(7,8-dimethyl-[1,2,4]triazolo[1,5-a]pyridin-6-yl)-2-((2S,5R)-2,5-dimethylpiperazin-1-yl)-6-isopropyl-4H-pyrrolo[3,2-d]thiazole]	14400	4.19	6.67
COc1cc(-c2[nH]c3sc(C4CCC(N(C)C5COC5)CC4)nc3c2C(C)C)cn2ncnc12 (single isomer, unassigned) [Example 125, N-(4-(6-isopropyl-5-(8-methoxy-[1,2,4]triazolo[1,5-a]pyridin-6-yl)-4H-pyrrolo[3,2-d]thiazol-2-yl)cyclohexyl)-N-methyloxetan-3-amine]	5400	25.9	5.8
Cc1c(-c2[nH]c3sc(C4CCC(N5CCC5)CC4)nc3c2C(C)C)cn2ncnc2c1C (single isomer, unassigned) [Example 216, 2-(4-(azetidin-1-yl)cyclohexyl)-5-(7,8-dimethyl-[1,2,4]triazolo[1,5-a]pyridin-6-yl)-6-isopropyl-4H-pyrrolo[3,2-d]thiazole]	6520	1.02	0.72

Other lines, results leading:

IC50 [1] [nM]	IC50 [2] [nM]	IC50 [3] [nM]	Structure (SMILES)
16000	3.13	1.84	CCN(C)C1CCC(c2nc3c(C(C)C)c(-c4cn(C)c5ncccc45)[nH]c3s2)CC1 (single isomer, unassigned) [Example 174, N-ethyl-4-(6-isopropyl-5-(1-methyl-1H-pyrrolo[2,3-b]pyridin-3-yl)-4H-pyrrolo[3,2-d]thiazol-2-yl)-N-methylcyclohexan-1-amine]
21600	0.83	6.23	Cc1c(-c2[nH]c3sc(N4CCN(C5CCOCC5)C[C@H]4C)nc3c2C(C)C)cn2ncnc2c1C [Example 318, (R)-5-(7,8-dimethyl-[1,2,4]triazolo[1,5-a]pyridin-6-yl)-6-isopropyl-2-(2-methyl-4-(tetrahydro-2H-pyran-4-yl)piperazin-1-yl)-4H-pyrrolo[3,2-d] thiazole]
12800	13.5	3.03	Cc1cc(-c2[nH]c3sc(C4CCC(NCC(C)(C)O)CC4)nc3c2C(C)C)cn2ncnc12 (single isomer, unassigned) [Example 141, 1-((4-(6-isopropyl-5-(8-methyl-[1,2,4]triazolo[1,5-a]pyridin-6-yl)-4H-pyrrolo[3,2-d]thiazol-2-yl)cyclohexyl)amino)-2-methylpropan-2-ol]
> 50000	60.2	119	Cc1c(-c2[nH]c3sc(C4CCC(N5CC(F)C5)CC4)nc3c2C(C)C)cn(C)c(=O)c1C (single isomer, unassigned) [Example 266, 5-(2-(4-(3-fluoroazetidin-1-yl)cyclohexyl)-6-isopropyl-4H-pyrrolo[3,2-d]thiazol-5-yl)-1,3,4-trimethylpyridin-2(1H)-one]
30400	1.94	0.75	Cc1c(-c2[nH]c3sc(C4CCC(N(C)C(C)C)CC4)nc3c2C(C)C)cn2ncnc2c1C (single isomer, unassigned) [Example 222, 4-(5-(7,8-dimethyl-[1,2,4]triazolo[1,5-a]pyridin-6-yl)-6-isopropyl-4H-pyrrolo[3,2-d]thiazol-2-yl)-N-isopropyl-N-methylcyclohexan-1-amine]
